# In patent US20030083241A1, “Use of somatostatin receptor agonists in the treatment of human disorders of sleep hypoxia and oxygen deprivation” (priority 2001, published 2003):
# Legend:
# GERD symptoms = assay: Clinical observation of GERD symptoms in a terminal cancer patient given octreotide; format: in vivo, human
# Protocol: Development of the present invention was stimulated by an event in Applicant's clinical practice of oncology. Octretotide was added to the treatment program of a patient with terminal cancer because the patient's cancer concentrated radiolabelled octreotide on a nuclear medicine scan. Treatment was initiated with subcutaneous octreotide at a dose of 150 microgram twice daily, then three times daily, and then finally the patient was shifted to a longer-acting depot formulation of octreotide (Sandostatin LAR) that was given intramuscularly on a monthly basis.
# GHRH hormone secretion = settings: in vivo; cited from earlier work
# [1] = tested on: TNF-alpha, Interleukin-1 beta and Interleukin-6; settings: cited from earlier work
# obstructive sleep apnea = settings: octreotide given as therapy for the endocrine disorder; cited from earlier work
smiles,measurement,setting,value
"C[C@@H](O)[C@@H]1NC(=O)[C@H](CCCCN)NC(=O)[C@@H](Cc2c[nH]c3ccccc23)NC(=O)[C@H](Cc2ccccc2)NC(=O)[C@@H](NC(=O)[C@H](N)Cc2ccccc2)CSSC[C@@H](C(=O)N[C@H](CO)[C@@H](C)O)NC1=O [octreotide, octreotide acetate]",GERD symptoms after initiation of octreotide administration,"GERD symptoms; one patient with terminal cancer, subcutaneous 150 microgram twice, then three times daily, then monthly IM Sandostatin LAR, symptoms present for many years",rapid and complete disappearance of GERD symptoms
same,duration of control of GERD symptomatology,"GERD symptoms; same patient, until death from a complication of the cancer unrelated to therapy",maintained for several months
same,GHRH hormone secretion,GHRH hormone secretion,inhibited
same,"secretion of TNF-alpha, Interleukin-1 beta and Interleukin-6",[1],inhibit
same,obstructive sleep apnea in patients with acromegaly,obstructive sleep apnea,ameliorated in many patients
